Measurements published in EP0070803A2, “Antibiotically active aminotriazolylcephalosporin derivatives and their preparation” (CIBA-GEIGY AG, priority 1981, dated 1983).
Converted amounts (≈) assume the structure as drawn. Structures can show the parent of a compound that is named as a salt. Where two headings read alike, the source gives them in different places.

What was measured:
Escherichia coli 205 [1] = assay: Antibiotic activity in vitro, agar dilution method (MIC); type: cell-based; settings: DST agar
Proteus mirabilis 774 = assay: as above; type: cell-based; settings: DST agar
[2] = system: Staphylococcus aureus 2999i^+p^+; assay: as above; type: cell-based; settings: DST agar
Proteus rettgeri 856 = assay: as above; type: cell-based; settings: Providencia rettgeri, DST agar
[3] = system: Clostridium perfringens 194; assay: microbe, parasite or virus in culture; type: cell-based
[4] = system: Haemophilus influenzae NCTC 4560; assay: Antibiotic activity in vitro, agar dilution method (MIC); type: cell-based; settings: DST agar
Proteus morganii 2359 = assay: Chemotherapeutic activity in vivo against systemic infection in mice (ED50); settings: Morganella morganii, sc, systemic infection in female SPF MF2 mice
Description: (§1) B. Die chemotherapeutische Wirksamkeit in vivo gegen systemische Infektionen in weiblichen SPF, MF2 Mäusen wurde nach der Methode von Zak., 0., et al., 1979, Drugs Exptl. Clin. Res. 5, 45-59, ermittelt. Die gefundenen ED50-Werte in Milligramm Substanz pro Kilogramm Maus (mg/kg) für eine Anzahl von Mikroorganismen werden für die subcutan (s.c.) applizierten Testverbindungen in der Tabelle 2 angegeben.

Escherichia coli 205 [5] = assay: as above; settings: s.c., systemic infection in female SPF MF2 mice
Description: as §1

[6] = system: Klebsiella pneumoniae 327; assay: Antibiotic activity in vitro, agar dilution method (MIC); type: cell-based; settings: DST agar
[7] = system: Streptococcus pyogenes Aronson; assay: as above; type: cell-based; settings: DST agar
[8] = system: Neisseria meningitidis 1316; assay: as above; type: cell-based; settings: DST agar
[9] = system: Bacteroides fragilis LO 1; assay: as above; type: cell-based; settings: LO1, DST agar
[10] = system: Pseudomonas aeruginosa ATCC 12055; assay: as above; type: cell-based; settings: ATCC12055, DST agar
Serratia marcescens 344 = assay: as above; type: cell-based; settings: DST agar
[11] = system: Staphylococcus aureus 10B; assay: Chemotherapeutic activity in vivo against systemic infection in mice (ED50); settings: systemic infection in female SPF MF2 mice
Description: as §1

[12] = Escherichia coli, 205, agar dilution, read-out: MIC
[13] = Proteus mirabilis, 774, agar dilution, read-out: MIC
[14] = Staphylococcus aureus, read-out: MIC
[15] = Haemophilus influenzae, NCTC4560, agar dilution, read-out: MIC
[16] = Escherichia coli, 205, sc, read-out: ED50
[17] = Klebsiella pneumoniae, 327, agar dilution, read-out: MIC
[18] = Neisseria meningitidis, 1316, agar dilution, read-out: MIC
[19] = Serratia marcescens, 344, agar dilution, read-out: MIC
[20] = Staphylococcus aureus, 10B, sc, read-out: ED50

CC(=O)OCC1=C(C(=O)O)N2C(=O)[C@@H](NC(=O)Cc3nc(N)n(C)n3)[C@H]2SC1 [Testverbindung 1, 7β-[2-(5-Amino-1-methyl-1H-1,2,4-triazol-3-yl)-acetamino]-3-acetoxymethyl-3-cephem-4-carbonsäure]
MIC (Escherichia coli 205 [1]; [12]): 32 µg/mL (≈ 78 µM)
MIC (Proteus mirabilis 774; [13]): 128 µg/mL (≈ 312 µM)
MIC [2, 14]: 8 µg/mL (≈ 19.5 µM)
MIC (Proteus rettgeri 856): 32 µg/mL (≈ 78 µM)
MIC [3]: 16 µg/mL (≈ 39 µM)
MIC [4, 15]: 4 µg/mL (≈ 9.75 µM)
ED50 (Proteus morganii 2359): > 30 mg/kg
ED50 (Escherichia coli 205 [5]; [16]): > 30 mg/kg
MIC [6, 17]: 16 µg/mL (≈ 39 µM)
MIC [7]: 1 µg/mL (≈ 2.44 µM)
MIC [8, 18]: 2 µg/mL (≈ 4.87 µM)

CO/N=C(\C(=O)N[C@@H]1C(=O)N2C(C(=O)O)=C(COC(C)=O)CS[C@H]12)c1nc(N)n(C)n1 [Beispiel 2, 7β-[2-(5-Amino-1-methyl-1H-1,2,4-triazol-3-yl)-2-Z-methoxyimino-acetamino]-3-acetoxymethyl-3-cephem-4-carbonsäure-hydrochlorid]
MIC (Escherichia coli 205 [1]; [12]): 0.1 µg/mL
MIC [9]: 8 µg/mL
MIC (Proteus mirabilis 774; [13]): 0.05 µg/mL
MIC [10]: 128 µg/mL
MIC [2, 14]: 8 µg/mL
MIC (Serratia marcescens 344; agar dilution): 1 µg/mL
MIC (Proteus rettgeri 856): 0.01 µg/mL
MIC [3]: 0.5 µg/mL
MIC [4, 15]: 1 µg/mL
ED50 (Escherichia coli 205 [5]): 1 mg/kg
ED50 ([11]; s.c.): 10 mg/kg
MIC [6, 17]: 0.1 µg/mL
MIC [7]: 0.5 µg/mL
MIC ([8]; agar dilution): 0,02 µg/ml

CO/N=C(\C(=O)N[C@@H]1C(=O)N2C(C(=O)[O-])=C(C[n+]3ccc(C(N)=O)cc3)CS[C@H]12)c1nc(N=CN(C)C)n(C)n1 [Testverbindung 5]
MIC (Escherichia coli 205 [1]; [12]): 32 µg/mL (≈ 56.1 µM)
MIC [9]: 32 µg/mL (≈ 56.1 µM)
MIC (Proteus mirabilis 774; [13]): 32 µg/mL (≈ 56.1 µM)
MIC [10]: 128 µg/mL (≈ 224 µM)
MIC [2, 14]: 8 µg/mL (≈ 14 µM)
MIC (Serratia marcescens 344; [19]): 128 µg/mL (≈ 224 µM)
MIC (Proteus rettgeri 856): 8 µg/mL (≈ 14 µM)
MIC [3]: 2 µg/mL (≈ 3.51 µM)
MIC [4, 15]: 128 µg/mL (≈ 224 µM)
ED50 (Proteus morganii 2359): 70 mg/kg
ED50 (Escherichia coli 205 [5]; [16]): > 30 mg/kg
ED50 [11, 20]: 55 mg/kg
MIC [6, 17]: 32 µg/mL (≈ 56.1 µM)
MIC [7]: 0.5 µg/mL (≈ 0.876 µM)
MIC [8, 18]: 8 µg/mL (≈ 14 µM)

CO/N=C(\C(=O)N[C@@H]1C(=O)N2C(C(=O)O)=C(CSc3nnnn3C)CS[C@H]12)c1nc(N)n(C)n1 [Testverbindung 3, 7β-[2-(5-Amino-1-methyl-1H-1,2,4-triazol-3-yl)-2-Z-methoxyimino-acetamino]-3-(1-methyltetrazol-5-yl-thiomethyl)-3-cephem-4-carbonsäure]
MIC (Escherichia coli 205 [1]; [12]): 0.2 µg/mL (≈ 0.393 µM)
MIC [9]: 16 µg/mL (≈ 31.4 µM)
MIC (Proteus mirabilis 774; [13]): 0.2 µg/mL (≈ 0.393 µM)
MIC [10]: 1 µg/mL (≈ 1.96 µM)
MIC [2, 14]: 8 µg/mL (≈ 15.7 µM)
MIC (Serratia marcescens 344; [19]): 0.5 µg/mL (≈ 0.981 µM)
MIC (Proteus rettgeri 856): 0.1 µg/mL (≈ 0.196 µM)
MIC [3]: 0.2 µg/mL (≈ 0.393 µM)
MIC [4, 15]: 8 µg/mL (≈ 15.7 µM)
ED50 (Proteus morganii 2359): 50 mg/kg
ED50 (Escherichia coli 205 [5]; [16]): 1.7 mg/kg
ED50 [11, 20]: 28 mg/kg
MIC [6, 17]: 0.2 µg/mL (≈ 0.393 µM)
MIC [7]: 1 µg/mL (≈ 1.96 µM)
MIC [8, 18]: 0.5 µg/mL (≈ 0.981 µM)

CO/N=C(\C(=O)N[C@@H]1C(=O)N2C(C(=O)[O-])=C(C[n+]3ccc(C(N)=O)cc3)CS[C@H]12)c1nc(N)n(C)n1 [Testverbindung 4, 7β-[2-(5-Amino-1-methyl-1H-1,2,4-triazol-3-yl)-2-Z-methoxyimino-acetamino]-3-(4-carbamoylpyridiniomethyl)-3-cephem-4-carboxylat]
MIC (Escherichia coli 205 [1]; [12]): 0.1 µg/mL (≈ 0.194 µM)
MIC [9]: 4 µg/mL (≈ 7.76 µM)
MIC (Proteus mirabilis 774; [13]): 0.1 µg/mL (≈ 0.194 µM)
MIC [2, 14]: 32 µg/mL (≈ 62.1 µM)
MIC (Serratia marcescens 344; [19]): 0.5 µg/mL (≈ 0.97 µM)
MIC (Proteus rettgeri 856): 0.02 µg/mL (≈ 0.0388 µM)
MIC [3]: 8 µg/mL (≈ 15.5 µM)
MIC [4, 15]: 2 µg/mL (≈ 3.88 µM)
ED50 (Escherichia coli 205 [5]; [16]): 2.5 mg/kg
MIC [6, 17]: 0.1 µg/mL (≈ 0.194 µM)
MIC [7]: 32 µg/mL (≈ 62.1 µM)
MIC [8, 18]: 0.5 µg/mL (≈ 0.97 µM)

CO/N=C(\C(=O)N[C@@H]1C(=O)N2C(C(=O)O)=C(COC(C)=O)CS[C@H]12)c1nc(N)n(C)n1 [Testverbindung 2, 7ß-[2-(5-Amino-l-methyl-lH-l,2,4-triazol-3-yl)-2-Z-methoxy-imino-acetamino]-3-acetoxymethyl-3-cephem-4-carbonsäure]
MIC (Escherichia coli 205 [1]; agar dilution, listed as 3): 0,05 µg/ml
MIC (Proteus mirabilis 774; agar dilution, listed as 3): 0,1 µg/ml
MIC ([2]; listed as 3): 4 µg/mL (≈ 8.82 µM)
MIC (Serratia marcescens 344; agar dilution, listed as 3): 0,1 µg/ml
MIC ([4]; agar dilution, listed as 3): 0,5 µg/ml
ED50 (Proteus morganii 2359): > 30 mg/kg
ED50 (Escherichia coli 205 [5]; listed as 3): 0,4 mg/kg
ED50 ([11]; s.c., listed as 3): >30 mg/kg
MIC ([6]; agar dilution, listed as 3): 0,05 µg/ml
MIC ([8]; agar dilution, listed as 3): 0,1 µg/ml
